Test results as given in patent US4694018A, “Substituted 1,5-diphenyl-2-pyrrolepropionic acids and derivatives” (G. D. Serale & Co., priority 1985, dated 1987).

How the values were obtained:
5-lipoxygenase = target: T1, 5-lipoxygenase (Rattus norvegicus, UniProt P12527); assay: Inhibition of 5-lipoxygenase, in vitro (5-HETE synthesis by RBL-1 homogenate 100,000×g supernatant); assay type: biochemical; conditions: RBL-1 homogenate supernatant, 5-HETE from [1-14C]-arachidonic acid with Ca++; read-out: Rat Basophilic Leukemia Cell- Inhibition IC50
T1 construct: supernatant fraction of Rat Basophilic Leukemia Cell Homogenate (RBL-1) serves as a 5-lipoxygenase enzyme source; endogenous in cells; host or cells: RBL-1 (rat basophilic leukemia cells), 100,000×g supernatant of homogenate
T1 sequence (P12527 1-673): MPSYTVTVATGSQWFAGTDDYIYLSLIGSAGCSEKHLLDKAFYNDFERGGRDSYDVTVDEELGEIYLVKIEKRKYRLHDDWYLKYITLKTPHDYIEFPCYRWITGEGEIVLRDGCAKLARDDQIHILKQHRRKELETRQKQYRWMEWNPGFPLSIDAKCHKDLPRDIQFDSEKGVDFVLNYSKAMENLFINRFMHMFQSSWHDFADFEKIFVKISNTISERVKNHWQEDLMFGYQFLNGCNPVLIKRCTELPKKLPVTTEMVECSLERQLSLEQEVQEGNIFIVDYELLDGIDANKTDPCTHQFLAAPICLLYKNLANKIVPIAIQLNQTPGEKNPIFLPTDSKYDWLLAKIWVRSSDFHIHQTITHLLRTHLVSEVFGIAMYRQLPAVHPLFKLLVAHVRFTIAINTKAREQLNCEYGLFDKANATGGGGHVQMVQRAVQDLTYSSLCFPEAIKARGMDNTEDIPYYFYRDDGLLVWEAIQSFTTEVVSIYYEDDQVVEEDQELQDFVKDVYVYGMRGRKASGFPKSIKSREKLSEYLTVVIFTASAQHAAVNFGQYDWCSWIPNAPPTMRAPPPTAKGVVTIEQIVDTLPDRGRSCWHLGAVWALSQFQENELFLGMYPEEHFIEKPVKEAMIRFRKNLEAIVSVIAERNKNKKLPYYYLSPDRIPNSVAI
Method: (1) Inhibition of 5-lipoxygenase, in vitro: anti-inflammatory, anti-allergyactivities.
The 100,000×g supernatant fraction of Rat Basophilic Leukemia Cell Homogenate (RBL-1) serves as a 5-lipoxygenase enzyme source. The enzyme is incubated with [1-^14 C]-arachidonic acid and Ca++ in the presence and absence of test compound. The product of 5-lipoxygenase, 5-hydroxyeicosatetraenoic acid (5-HETE), is separated by thin-layer chromatography and measured by radioactivity. A compound inhibiting 5-HETE synthesis by 30% or more is considered active at that concentration.

[1] = system: bronchoconstricting effects; conditions: versus histamine; cited from earlier work
[2] = system: SRS synthesis by Rat Basophilic Leukemia Cell (RBL-1) cells; assay: Inhibition of slow reacting substance (SRS) biosynthesis in RBL-1 cells; assay type: cell-based; conditions: ionophore A23187, guinea pig ileum bioassay
Method: (2) Inhibition of slow reacting substance (SRS) biosynthesis in cells.
SRS synthesis by Rat Basophilic Leukemia Cell (RBL-1) cells is induced by incubation of cells with ionophore A23187 alone and in combination with the test compound. The SRS released into the culture media is measured. The percent inhibition of SRS production is estimated by determining the doses of treated and control media needed in the tissue bath to produce equivalent contractions of segments of isolated guinea pig ileum.
Initial screening doses of test compounds are 1×10^-4 M and 1×10^-5 M.

IC50 (5-lipoxygenase) [µM]	Compound	potency relative to histamine in causing long lasting bronchoconstricting effects [1]	inhibition at 5 µM [2] [%]
10	O=C(O)CCc1ccc(-c2ccc(Cl)cc2)n1-c1cc(Cl)ccc1O [Example 5, 1-(5-chloro-2-hydroxyphenyl)-5-(4-chlorophenyl)-1H-pyrrole-2-propanoic acid]	–	–
0.83	O=C(O)CCc1ccc(-c2ccc(F)cc2)n1-c1cc(Cl)ccc1O [Example 1, 1-(5-chloro-2-hydroxyphenyl)-5-(4-fluorophenyl)-1H-pyrrole-2-propanoic acid]	–	82

Continued, compound first:

Compound	IC50 (5-lipoxygenase) [µM]	potency relative to histamine in causing long lasting bronchoconstricting effects [1]	inhibition at 5 µM [2] [%]
COc1ccc(-c2ccc(CCC(=O)O)n2-c2cc(Cl)ccc2O)cc1 [Example 7, 1-(5-chloro-2-hydroxyphenyl)-5-(4-methoxyphenyl)-1H-pyrrole-2-propanoic acid]	35	–	–
NC(=O)CCc1ccc(-c2ccc(F)cc2)n1-c1cc(Cl)ccc1O [Example 4, 1-(5-chloro-2-hydroxyphenyl)-5-(4-fluorophenyl)-1H-pyrrole-2-propanamide]	2.4	–	–
CCCCC/C=C\C\C=C/C=C/C=C/[C@@H](SC[C@H](NC(=O)CC[C@H](N)C(=O)O)C(=O)NCC(=O)O)[C@@H](O)CCCC(=O)O [LTC4]	–	at least 100 times	–
